Experiments:
[1] = system: breast cancer cell line ZR-75-1; assay: Inhibition of proliferation of breast cancer cell line ZR-75-1 (CellTiter-Glo); assay type: cell-based; conditions: Homo sapiens, 240 h, proliferation of ZR-75-1 cells, 10 days of incubation, read-out: IC50 (KAT6A)
KAT7 = molecular target: T1, KAT7 (Homo sapiens, UniProt O95251); assay: Inhibition of human KAT enzymes, radioisotope method: KAT7; assay type: biochemical; conditions: for Ki: KAT7 (full-length), radioisotope method; for KAT7/ KAT6A / KAT7/ KAT6B: selectivity, ratio of Ki
T1 construct: purchased ACTIVE MOTIF 31889
T1 sequence (O95251 whole entry): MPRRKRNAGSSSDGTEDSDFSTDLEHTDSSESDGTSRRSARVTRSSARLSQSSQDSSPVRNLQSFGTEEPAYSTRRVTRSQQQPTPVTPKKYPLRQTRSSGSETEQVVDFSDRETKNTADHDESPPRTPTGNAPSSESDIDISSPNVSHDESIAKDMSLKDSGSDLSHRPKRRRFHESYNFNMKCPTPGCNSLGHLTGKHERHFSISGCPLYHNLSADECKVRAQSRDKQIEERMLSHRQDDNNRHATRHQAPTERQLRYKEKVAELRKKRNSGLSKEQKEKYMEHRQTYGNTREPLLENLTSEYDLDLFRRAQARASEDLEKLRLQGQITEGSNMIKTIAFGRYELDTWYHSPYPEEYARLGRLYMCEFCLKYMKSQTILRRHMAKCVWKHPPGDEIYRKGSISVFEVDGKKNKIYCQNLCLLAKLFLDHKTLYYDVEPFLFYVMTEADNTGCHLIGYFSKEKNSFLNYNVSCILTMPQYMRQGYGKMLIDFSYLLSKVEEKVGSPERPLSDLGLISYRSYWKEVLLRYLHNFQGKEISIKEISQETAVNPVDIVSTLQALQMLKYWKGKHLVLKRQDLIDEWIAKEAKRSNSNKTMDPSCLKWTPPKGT
From the text: (§1) Test Example 2: Selective Inhibitory Effects of Test Compounds on Human KAT6 Enzymes (Radioisotope Method)
(§2) • 1. KAT6A (ACTIVE MOTIF, Cat. No. 81223) • 2. KAT5 (BPS, Cat. No. 79422) • 3. KAT7 (ACTIVE MOTIF, Cat. No. 31889) • 4. KAT6B (ACTIVE MOTIF, Cat. No. 81224) • 5. Acetyl coenzyme A, [Acetyl-^3H, 250 μCi (9.25 MBq](PEIRKIN4 ELMER, Cat. No. NET290250UC) • 6. Acetyl coenzyme A (CAYMVAN, Cat. No. 16160) • 7. 384-well Flashplate (Perkin Elmer, Cat. No. SMP410A001PK) • 8. Garcinol (MCE, Cat. No. HY-107569) • 9. Automatic microplate pipetting system (Precision, PRC384U, BioTek) • 10. Ultrasonic nanoliter liquid handling system (Echo 650 Liquid Handler, Echo 650, Labcyte) • 11. Centrifuge (Avanti J-15R, Beckman Coulter) • 12. Liquid scintillation counter (Microplate Counter, Microbeta2, Perkin Elmer)
(§3) • 1. For KAT6A and KAT7, a 1× assay buffer was prepared as follows: 10 mM Tris-HCl pH 8.0, 0.01% Tween-20, and 1 mM DTT; for KAT6B and KAT5, a 1× assay buffer was prepared as follows: 50 mM Tris-HCl pH 8.0, 0.05% Tween-20, and 1 mM DTT. • 2. Compound preparation: For KAT6A, KAT6B, and KAT7, the final concentration of the compounds started at 1 μM, followed by a 5-fold serial dilution across a total of 7 concentration gradients; for KAT5, the final concentration of the compounds started at 10 μM, followed by a 5-fold serial dilution across a total of 7 concentration gradients. • 3. Substrate reaction solution preparation: The mixed substrates of H4 peptide and [3H]acetyl coenzyme A at final concentrations were prepared using the respective 1× assay buffers, as shown in Table 4.
(§4) • 1. The enzyme solution was transferred to 384-well reaction plates at 10 μL/well. For each negative control well, 10 μL of the 1× assay buffer was transferred. The plates were then centrifuged at 1000 RPM for 1 min and incubated at room temperature for 15 min. • 2. The substrate reaction solution was added at 10 μL/well, and the plates were centrifuged at 1000 RPM for 1 min to start the reaction. • 3. The samples for KAT6A, KAT6B, KAT7, KAT8, and KAT5 were then incubated at room temperature for 60 min, 120 min, 45 min, 60 min, and 120 min, respectively. • 4. Stop solution preparation: A stop solution was prepared by diluting 50 µM cold Ac-CoA in 1× buffer. • 5. The stop solution was added at 10 μL/well, and the plates were centrifuged at […] for 1 min to stop the reaction. • 6. The mixtures in the reaction plates were transferred at 25 μL/well to new plates (Streptavidin FlashPlate HTS PLUS, High Capacity, 384-well). • 7. The plates were incubated at room temperature for at least 60 min and then • 8. read using MicroBeta2.
(§5) Raw data were obtained in EXCEL, and the inhibition rates were calculated:
(§6) [formula] [formula] • Max signal: reaction signal from enzyme and substrate; • Sample signal: signal from sample; • Min signal: signal from substrate only (negative control).
(§7) The inhibition rate data were imported into XLFit Excel, and IC50 values were obtained using formula (2):
(§8) [formula] [formula] • Top: value of the top plateau of the fitted regression curve; • Bottom: value of the bottom plateau of the fitted regression curve; • HillSlope: slope of the fitted regression curve.
(§9) The IC50 value was substituted into formula (3) to obtain the enzymatic activity inhibition constant Ki:
(§10) [formula] • [S]: substrate concentration; Km: Michaelis constant.

KAT6A = molecular target: T2, KAT6A (Homo sapiens, UniProt Q92794); assay: Inhibition of human KAT enzymes, radioisotope method: KAT6A; assay type: biochemical; conditions: KAT6A (488-778)
T2 construct: purchased ACTIVE MOTIF 81223
From the text: as §1, §2, §3, §4, §5, §6, §7, §8, §9, §10

KAT6B = molecular target: T3, KAT6B (Homo sapiens, UniProt Q8WYB5); assay: Inhibition of human KAT enzymes, radioisotope method: KAT6B; assay type: biochemical; conditions: KAT6B (718-1008)
T3 construct: purchased ACTIVE MOTIF 81224
T3 sequence (Q8WYB5 whole entry): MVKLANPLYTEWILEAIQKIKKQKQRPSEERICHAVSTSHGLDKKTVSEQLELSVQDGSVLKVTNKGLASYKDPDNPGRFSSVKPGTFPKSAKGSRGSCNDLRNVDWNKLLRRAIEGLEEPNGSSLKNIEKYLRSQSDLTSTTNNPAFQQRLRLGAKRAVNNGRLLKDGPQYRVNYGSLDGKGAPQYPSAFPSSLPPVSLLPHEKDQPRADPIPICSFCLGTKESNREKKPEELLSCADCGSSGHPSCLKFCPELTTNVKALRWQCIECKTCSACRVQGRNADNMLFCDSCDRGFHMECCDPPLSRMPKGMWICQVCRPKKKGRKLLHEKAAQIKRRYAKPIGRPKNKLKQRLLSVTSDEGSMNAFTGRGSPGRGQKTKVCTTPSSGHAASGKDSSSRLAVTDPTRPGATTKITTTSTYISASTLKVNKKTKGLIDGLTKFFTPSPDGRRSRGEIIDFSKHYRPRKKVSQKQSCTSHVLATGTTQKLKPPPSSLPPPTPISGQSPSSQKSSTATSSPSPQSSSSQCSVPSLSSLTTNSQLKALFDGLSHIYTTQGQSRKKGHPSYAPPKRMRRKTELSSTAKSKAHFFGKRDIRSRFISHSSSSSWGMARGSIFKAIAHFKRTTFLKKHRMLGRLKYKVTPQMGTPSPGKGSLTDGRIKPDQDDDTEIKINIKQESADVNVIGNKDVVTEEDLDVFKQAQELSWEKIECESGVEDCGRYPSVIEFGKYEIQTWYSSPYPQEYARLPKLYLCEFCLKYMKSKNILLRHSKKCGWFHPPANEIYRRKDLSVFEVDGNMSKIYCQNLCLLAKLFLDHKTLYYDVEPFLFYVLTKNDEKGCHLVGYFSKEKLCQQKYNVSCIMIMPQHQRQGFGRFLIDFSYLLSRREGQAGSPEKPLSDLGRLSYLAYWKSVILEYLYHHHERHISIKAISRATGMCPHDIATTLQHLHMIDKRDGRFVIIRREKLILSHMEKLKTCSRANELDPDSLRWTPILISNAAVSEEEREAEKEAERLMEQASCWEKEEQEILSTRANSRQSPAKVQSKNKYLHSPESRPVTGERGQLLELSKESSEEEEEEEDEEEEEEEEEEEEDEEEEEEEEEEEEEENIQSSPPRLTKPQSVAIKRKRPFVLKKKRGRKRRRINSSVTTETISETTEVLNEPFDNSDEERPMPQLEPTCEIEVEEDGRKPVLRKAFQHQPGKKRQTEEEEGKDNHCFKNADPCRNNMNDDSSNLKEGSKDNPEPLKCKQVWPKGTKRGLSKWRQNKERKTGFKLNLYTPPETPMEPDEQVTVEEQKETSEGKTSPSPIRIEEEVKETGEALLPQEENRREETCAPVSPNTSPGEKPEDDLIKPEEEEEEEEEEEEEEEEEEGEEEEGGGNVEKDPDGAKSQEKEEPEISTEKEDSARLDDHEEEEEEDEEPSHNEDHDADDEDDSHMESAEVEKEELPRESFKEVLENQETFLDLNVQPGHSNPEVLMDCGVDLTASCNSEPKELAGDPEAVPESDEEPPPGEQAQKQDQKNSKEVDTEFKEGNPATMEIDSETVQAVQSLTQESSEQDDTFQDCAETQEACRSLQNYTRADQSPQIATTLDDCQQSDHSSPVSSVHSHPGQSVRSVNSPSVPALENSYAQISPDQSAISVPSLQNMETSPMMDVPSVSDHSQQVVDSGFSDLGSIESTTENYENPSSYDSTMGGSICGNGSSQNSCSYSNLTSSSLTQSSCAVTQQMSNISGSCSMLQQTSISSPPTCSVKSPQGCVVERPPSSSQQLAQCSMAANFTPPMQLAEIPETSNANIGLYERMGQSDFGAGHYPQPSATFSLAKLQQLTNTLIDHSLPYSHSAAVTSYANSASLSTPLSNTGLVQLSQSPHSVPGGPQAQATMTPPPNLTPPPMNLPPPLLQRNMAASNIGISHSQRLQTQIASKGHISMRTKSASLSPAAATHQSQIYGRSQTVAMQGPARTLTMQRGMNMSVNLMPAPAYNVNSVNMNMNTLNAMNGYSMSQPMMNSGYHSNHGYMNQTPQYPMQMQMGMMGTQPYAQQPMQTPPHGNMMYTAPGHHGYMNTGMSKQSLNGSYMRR
From the text: as §1, §2, §3, §4, §5, §6, §7, §8, §9, §10

KAT5 = molecular target: T4, KAT5 (Homo sapiens, UniProt Q92993); assay: Inhibition of human KAT enzymes, radioisotope method: KAT5; assay type: biochemical; conditions: for Ki: KAT5 (full-length), radioisotope method; for KAT5/ KAT6A / KAT5/ KAT6B: selectivity, ratio of Ki
T4 construct: purchased BPS 79422
T4 sequence (Q92993 whole entry): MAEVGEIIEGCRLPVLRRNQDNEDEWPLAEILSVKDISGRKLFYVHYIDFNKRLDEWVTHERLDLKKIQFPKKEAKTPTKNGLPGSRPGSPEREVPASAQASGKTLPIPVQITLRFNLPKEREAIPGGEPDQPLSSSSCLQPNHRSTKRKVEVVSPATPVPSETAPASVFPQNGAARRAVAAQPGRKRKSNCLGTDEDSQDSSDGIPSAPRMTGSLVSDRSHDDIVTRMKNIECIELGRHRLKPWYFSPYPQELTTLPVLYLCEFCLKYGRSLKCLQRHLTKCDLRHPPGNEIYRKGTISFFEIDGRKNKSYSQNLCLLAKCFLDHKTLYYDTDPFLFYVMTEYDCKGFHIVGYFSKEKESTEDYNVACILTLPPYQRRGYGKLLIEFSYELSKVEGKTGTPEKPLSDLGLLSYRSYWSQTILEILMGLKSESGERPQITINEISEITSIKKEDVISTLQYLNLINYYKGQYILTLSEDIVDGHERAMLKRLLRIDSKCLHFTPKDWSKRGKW
From the text: as §1, §2, §3, §4, §5, §6, §7, §8, §9, §10

[2] = system: ER-positive breast cancer; conditions: preclinical studies, in vivo and in vitro; cited from earlier work

SMILES | IC50 [1] [nM] | Ki (KAT7) [nM] | KAT7/ KAT6A (KAT7) | KAT7/ KAT6B (KAT7) | Ki (KAT6A) [nM] | Ki (KAT6B) [nM] | Ki (KAT5) [nM] | KAT5/ KAT6A (KAT5) | KAT5/ KAT6B (KAT5) | anti-tumor activity against ER-positive breast cancer [2]
COc1ccc2c(c1S(=O)(=O)Nc1noc3cc(Cn4cccn4)c(F)c(OC)c13)OCCN2S(C)(=O)=O [Compound 121, N-(6-((1H-Pyrazol-1-yl)methyl)-5-fluoro-4-methoxybenzo[d]isoxazol-3-yl)-7-methoxy-4-(methylsulfonyl)-3,4-dihydro-2H-benzo[b][1,4]oxazine-8-sulfonamide] | 2 to 10 | 96 | 343 | 107 | 0.28 | 0.9 | 577 | 2061 | 641 | –
COc1cccc(OC)c1S(=O)(=O)Nc1noc2cc(Cn3cccn3)cc(OC)c12 [CTx-648] | – | – | – | – | – | – | – | – | – | excellent in vivo and in vitro anti-tumor activity
COc1ccc2c(c1S(=O)(=O)Nc1noc3cc(Cn4cccn4)c(F)c(OC)c13)OCCN2C(C)=O [Compound 110, N-(6-((1H-Pyrazol-1-yl)methyl)-5-fluoro-4-methoxybenzo[d]isoxazol-3-yl)-4-acetyl-7-methoxy-3,4-dihydro-2H-benzo[b][1,4]oxazine-8-sulfonamide] | 0.5 to 2 | 64.5 | 223 | 40 | 0.29 | 1.6 | 1150 | 3967 | 719 | –

From patent US20260174778A1, “SULFONAMIDE COMPOUND, AND PREPARATION METHOD THEREFOR AND USE THEREOF” (SHANGHAI HENLIUS BIOTECH, INC., priority 2023, published 2026)
